Data on 21 compounds can be found in patent US20240400553A1, “AMINE BASED MATRIPTASE 2 INHIBITORS AND USES THEREOF” (Disc Medicine, Inc., priority 2023, published 2024).

A value given as a limit tells only on which side of the number the result lay.

A word on the Ki: it is a dissociation constant, usually derived from enzyme kinetics or from competition with a known ligand.

One experiment addresses T1, Human Recombinant Matriptase 2 (Homo sapiens, UniProt Q8IU80).
T1 construct: made in house
T1 sequence (Q8IU80 1-811): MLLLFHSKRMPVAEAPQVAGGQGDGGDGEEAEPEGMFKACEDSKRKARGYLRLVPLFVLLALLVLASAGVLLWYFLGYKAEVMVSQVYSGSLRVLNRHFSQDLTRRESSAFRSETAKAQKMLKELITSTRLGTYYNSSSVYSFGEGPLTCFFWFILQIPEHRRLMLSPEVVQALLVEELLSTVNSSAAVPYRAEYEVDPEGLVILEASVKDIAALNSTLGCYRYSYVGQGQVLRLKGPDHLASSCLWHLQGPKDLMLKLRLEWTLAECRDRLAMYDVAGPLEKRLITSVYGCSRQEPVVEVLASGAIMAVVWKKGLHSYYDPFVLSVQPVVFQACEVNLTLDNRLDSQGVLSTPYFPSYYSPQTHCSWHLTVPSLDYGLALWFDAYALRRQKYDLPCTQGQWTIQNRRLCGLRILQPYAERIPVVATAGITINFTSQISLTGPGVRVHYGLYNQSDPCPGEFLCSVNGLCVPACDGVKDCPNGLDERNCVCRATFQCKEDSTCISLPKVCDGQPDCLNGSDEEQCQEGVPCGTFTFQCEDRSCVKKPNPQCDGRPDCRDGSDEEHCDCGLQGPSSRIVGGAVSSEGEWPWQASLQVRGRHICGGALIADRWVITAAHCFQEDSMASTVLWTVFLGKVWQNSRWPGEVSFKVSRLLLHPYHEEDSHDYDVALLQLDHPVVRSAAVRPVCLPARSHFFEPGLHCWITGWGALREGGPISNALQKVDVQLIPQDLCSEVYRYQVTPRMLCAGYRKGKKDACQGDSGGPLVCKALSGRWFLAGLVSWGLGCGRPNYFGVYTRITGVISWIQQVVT
Nature of the experiment: Matriptase 2 inhibition, fluorescence based assay (Method I). Format: biochemical. The following applies: Table A; Ki of Matriptase-2; read-out: Mat-2 Ki. The method, boiled down: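 Fluorogenic readout (Ex 360/Em 480 nm) taken 60 min after adding 62 μM Boc-Gln-Ala-Arg-AMC, following 30-min enzyme–compound preincubation at 25 °C. Conditions: 3.5 nM in-house enzyme, pH 7.5 Tris/NaCl/gelatin buffer, 1% DMSO; percent inhibition versus concentration fitted by variable-slope sigmoidal regression.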
`CN(CCOC(=O)c1cc2ccc(CN)nc2n1Cc1cc(NS(=O)(=O)Cc2ccccc2)cc2ccccc12)C(=O)OC(C)(C)C` [Compound 122, 2-{[(tert-butoxy)carbon-yl](methyl)amino}ethyl 6-(aminomethyl)-1-{[3-(phenylmethanesulfon-amido)naphthalen-1-yl]-methyl}-1H-pyrrolo[2,3-b]pyridine-2-carboxylate]: the Ki is 500 to 3000 nM. For `NCc1ccc2cc(C(=O)OCC3CCOCC3)n(Cc3cc(NS(=O)(=O)Cc4ccccc4)cc4ccccc34)c2n1` [Compound 79, (oxan-4-yl)methyl 6-(aminomethyl)-1-{[3-(phenylmethanesulfon-amido)naphthalen-1-yl]-methyl}-1H-pyrrolo[2,3-b]pyridine-2-carboxylate], the Ki was at most 100 nM. As to `CC(C)n1nccc1COC(=O)c1cc2ccc(CN)nc2n1Cc1cc(NS(=O)(=O)Cc2ccccc2)cc2ccccc12` [Compound 111, [1-(propan-2-yl)-1H-pyrazol-5-yl]methyl 6-(aminomethyl)-1-{[3-(phenylmethanesulfon-amido)naphthalen-1-yl]-methyl}-1H-pyrrolo-[2,3-b]pyridine-2-car-boxylate], the inhibitory constant (Ki) fell in the range of 100 to 500 nM. The same measure, in the same setting: next, `Cc1oc(=O)oc1COC(=O)c1cc2ccc(CN)nc2n1Cc1cc(NS(=O)(=O)Cc2ccsc2)cc2ccccc12` [Compound 178, (5-methyl-2-oxo-2H-1,3-dioxol-4-yl)methyl 6-(aminomethyl)-1-({3-[(thiophen-3-yl)methane-sulfonamido]naphthalen-1-yl}methyl)-1H-pyr-rolo[2,3-b]pyridine-2-carboxylate]: 100 to 500 nM. With `CC(C)n1ccc(COC(=O)c2cc3ccc(CN)nc3n2Cc2cc(NS(=O)(=O)Cc3ccccc3)cc3ccccc23)n1` [Compound 90, [1-(propan-2-yl)-1H-pyrazol-3-yl]methyl 6-(aminomethyl)-1-{[3-(phenylmethanesulfon-amido)naphthalen-1-yl]-methyl}-1H-pyrrolo[2,3-b]pyridine-2-carboxylate], the inhibitory constant (Ki) was 100 to 500 nM. Turning to `NCc1ccc2cc(C(=O)OCc3cn(CC(F)(F)F)cn3)n(Cc3cc(NS(=O)(=O)Cc4ccccc4)cc4ccccc34)c2n1` [Compound 101, [1-(2,2,2-trifluoroethyl)-1H-imidazol-4-yl]methyl 6-(aminomethyl)-1-{[3-(phenylmethanesulfon-amido)naphthalen-1-yl]-methyl}-1H-pyrrolo[2,3-b]pyridine-2-carboxylate], the Ki was 100 to 500 nM. The same measure, in the same setting: with `CN1CCC(OC(=O)c2cc3ccc(CN)nc3n2Cc2cc(NS(=O)(=O)Cc3ccccc3)cc3ccccc23)CC1` [Compound 18, 1-methylpiperidin-4-yl 6-(aminomethyl)-1-{[3-(phenylmethanesulfon-amido)naphthalen-1-yl]-methyl}-1H-pyrrolo[2,3-b]pyridine-2-carboxylate] the figure was at most 100 nM. The same measure, in the same setting: with `Cc1cccc(C)c1CS(=O)(=O)Nc1cc(Cn2c(C(=O)OC[C@H]3COCCN3)cc3ccc(CN)nc32)c2ccccc2c1` [Compound 189, [(3R)-morpholin-3-yl]-methyl 6-(aminomethyl)-1-({3-[(2,6-dimethyl-phenyl)methanesulfon-amido]naphthalen-1-yl}-methyl)-1H-pyrrolo[2,3-b]pyridine-2-carboxylate] the figure was at most 100 nM. In the case of `COCCN1CC[C@H](COC(=O)c2cc3ccc(CN)nc3n2Cc2cc(NS(=O)(=O)Cc3ccccc3)cc3ccccc23)C1` (racemic) [Compound 138, rac-[(3R)-1-(2-methoxy-ethyl)pyrrolidin-3-yl]-methyl 6-(aminometh-yl)-1-{[3-(phenylmeth-anesulfonamido)naph-thalen-1-yl]methyl}-1H-pyrrolo[2,3-b]pyridine-2-carboxylate], the Ki was at most 100 nM. On the same count and under the same terms, next, `NCc1ccc2cc(C(=O)OCCCCN3CCOCC3)n(Cc3cc(NS(=O)(=O)Cc4ccccc4)cc4ccccc34)c2n1` [Compound 7, 4-morpholinobutyl 6-(aminomethyl)-1-((3-((phenylmethyl)sulfonamido)naphthalen-1-yl)methyl)-1H-pyrrolo[2,3-b]pyridine-2-carboxylate]: at most 100 nM. On to `CC(C)(C)n1cncc1COC(=O)c1cc2ccc(CN)nc2n1Cc1cc(NS(=O)(=O)Cc2ccccc2)cc2ccccc12` [Compound 29, (1-tert-butyl-1H-imid-azol-5-yl)methyl 6-(aminomethyl)-1-{[3-(phenylmethanesulfon-amido)naphthalen-1-yl]-methyl}-1H-pyrrolo[2,3-b]pyridine-2-carboxylate], for which the Ki was at most 100 nM.

Staying with this experiment, now noted: Table A; Ki of Matriptase-2 given as class symbols; read-out: Mat-2 Ki.
`NCc1ccc2cc(C(=O)O)n(Cc3cc(NS(=O)(=O)Cc4ccccc4)cc4ccccc34)c2c1` [Compound 370, 6-(aminomethyl)-1-((3-((phenylmethyl)sulfonamido)naphthalen-1-yl)methyl)-1H-indole-2-carboxylic acid]: the inhibition constant Ki is at most 100 nM. For the compound `CN1CCC[C@H]1COC(=O)Nc1cc(Cn2c(C(=O)O)cc3ccc(CN)nc32)c2ccccc2c1` [Compound 334, 6-(aminomethyl)-1-({3-[({[(2S)-1-methylpyr-rolidin-2-yl]methoxy}-carbonyl)amino]naph-thalen-1-yl}methyl)-1H-pyrrolo[2,3-b]pyr-idine-2-carboxylic acid], the Ki was 100 to 500 nM.

As to `NCc1ccc2cc(C(=O)O)n(Cc3cc(NS(=O)(=O)Cc4c(F)cccc4F)cc4ccccc34)c2n1` [Compound 246, 6-(aminomethyl)-1-({3-[(2,6-difluorophenyl)-methanesulfonamido]-naphthalen-1-yl}meth-yl)-1H-pyrrolo[2,3-b]-pyridine-2-carboxylic acid], the Ki was 100 to 500 nM.

As to `CNCCOC(=O)c1cc2ccc(CN)nc2n1Cc1cc(NS(=O)(=O)Cc2c(C)cccc2C)cc2ccccc12` [Compound 200, 2-(methylamino)ethyl 6-(aminomethyl)-1-({3-[(2,6-dimethylphenyl)-methanesulfonamido]-naphthalen-1-yl}meth-yl)-1H-pyrrolo[2,3-b]-pyridine-2-carboxylate], the Ki fell in the range of 100 to 500 nM. The same measure, in the same setting: with `NCc1ccc2cc(CO)n(Cc3cc(NS(=O)(=O)Cc4ccccc4)cc4ccccc34)c2n1` [Compound 365, N-(4-((6-(aminomethyl)-2-(hydroxymethyl)-1H-pyrrolo[2,3-b]pyridin-1-yl)methyl)naphthalen-2-yl)-1-phenylmethanesulfonamide] the figure was 500 to 3000 nM; with `COCCN1CCN(CCS(=O)(=O)Nc2cc(Cn3c(C(=O)O)cc4ccc(CN)cc43)c3ccccc3c2)CC1` [Compound 388, 6-(aminomethyl)-1-[(3-{2-[4-(2-methoxyethyl)-piperazin-1-yl]ethanesul-fonamido}naphthalen-1-yl)methyl]-1H-indole-2-carboxylic acid], 100 to 500 nM. On the same count and under the same terms, with `CN1CCC(c2nnc(-c3cc4ccc(CN)nc4n3Cc3cc(NS(=O)(=O)Cc4ccccc4)cc4ccccc34)o2)CC1` [Compound 345, N-(4-((6-(aminomethyl)-2-(5-(1-methylpiperidin-4-yl)-1,3,4-oxadiazol-2-yl)-1H-pyrrolo[2,3-b]pyridin-1-yl)methyl)naphthalen-2-yl)-1-phenylmethanesulfonamide] the figure was at most 100 nM.

The experiment is the same for the next values; noted with them: Table B; Human Recombinant Matriptase 2, 3.5 nM enzyme, 62 μM substrate, 30 mins preincubation; read-out: Mean Ki.
As for `CN1CCC(CCOC(=O)c2cc3ccc(CN)nc3n2Cc2cc(NS(=O)(=O)Cc3ccccc3)c3ccccc3c2)CC1` [Compound 2.12], the Ki fell in the range of 100 to 500 nM.

As for `CB1C=Cc2c(Cn3c(C(=O)OCC4CCN(C)CC4)cc4ccc(CN)nc43)cc(Br)cc2N1` [Compound 2.31], the Ki was 500 to 3000 nM. As for `CN1CCC(COC(=O)c2cc3ccc(CN)nc3n2Cc2cccn3ccnc23)CC1` [Compound 2.39], the Ki was over 3000 nM.
